Reference: patent US9834542B2, “LXR modulators” (BRISTOL-MYERS SQUIBB COMPANY, priority 2013, dated 2017)

Molecular target: T1, LXRβ (Homo sapiens, UniProt P55055)
T1 construct: Co-transfection expression plasmids, comprising full-length LXRα (pCMX-h LXRα[…] or LXRβ (pCMX-hLXRβ)); expressed in transfected cells; host or cells: CV-1 African Green Monkey Kidney Cells
T1 sequence (P55055 1-460): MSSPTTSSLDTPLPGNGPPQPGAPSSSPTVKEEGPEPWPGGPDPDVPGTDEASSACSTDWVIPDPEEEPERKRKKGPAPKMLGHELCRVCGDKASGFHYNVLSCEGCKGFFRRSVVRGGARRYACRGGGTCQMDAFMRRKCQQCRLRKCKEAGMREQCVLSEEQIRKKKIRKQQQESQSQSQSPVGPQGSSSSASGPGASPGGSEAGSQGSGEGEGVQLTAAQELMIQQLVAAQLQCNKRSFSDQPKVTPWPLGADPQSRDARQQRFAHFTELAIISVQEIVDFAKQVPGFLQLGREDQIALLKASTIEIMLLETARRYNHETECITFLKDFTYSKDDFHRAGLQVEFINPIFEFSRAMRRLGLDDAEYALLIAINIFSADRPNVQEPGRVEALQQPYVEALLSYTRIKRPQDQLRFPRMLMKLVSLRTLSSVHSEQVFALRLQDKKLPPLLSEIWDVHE
T1 sequence (P19793 1-462 partner): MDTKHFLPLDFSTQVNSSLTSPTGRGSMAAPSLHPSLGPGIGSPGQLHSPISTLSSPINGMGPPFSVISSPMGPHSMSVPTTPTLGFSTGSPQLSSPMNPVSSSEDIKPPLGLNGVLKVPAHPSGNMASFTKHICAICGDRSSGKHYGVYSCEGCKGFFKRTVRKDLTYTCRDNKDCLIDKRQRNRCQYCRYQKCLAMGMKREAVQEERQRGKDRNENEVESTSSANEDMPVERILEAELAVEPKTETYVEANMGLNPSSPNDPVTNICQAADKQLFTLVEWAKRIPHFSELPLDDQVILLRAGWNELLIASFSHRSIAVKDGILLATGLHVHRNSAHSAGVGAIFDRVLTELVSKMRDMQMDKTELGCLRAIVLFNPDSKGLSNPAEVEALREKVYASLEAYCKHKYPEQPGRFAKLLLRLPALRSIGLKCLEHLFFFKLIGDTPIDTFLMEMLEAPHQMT
Assay: Co-transfection assay (LXRE luciferase reporter), LXRβ
Format: cell-based
Conditions: for EC50: CV-1 cells transfected with pCMX-hLXRβ and LXREx1-Tk-Luciferase, 20 hours incubation; for Emax: LXRβ co-transfection, relative to high control 1-(2,4-difluorobenzyl)-2-oxo-6-(4-phenoxyphenyl)-4-(trifluoromethyl)-1,2-dihydropyridine-3-carbonitrile, read-out: % Efficacy
Source text: To measure the ability of compounds to activate or inhibit the transcriptional activity of LXR in a cell based assay, the co-transfection assay was used. It has been shown that LXR functions as a heterodimer with RXR. For the co-transfection assay, expression plasmids for LXRα and LXRβ are introduced separately via transient transfection into mammalian cells along with a luciferase reporter plasmid that contains one copy of a DNA sequence that is bound by LXR-RXR heterodimers (LXRE; Willy, P. et. al. 1995). LXRs heterodimerize with the endogenous RXR. Treatment of transfected cells with an LXR agonist increases the transcriptional activity of LXR, which is measured by an increase in luciferase activity.
CV-1 African Green Monkey Kidney Cells
Co-transfection expression plasmids, comprising full-length LXRα (pCMX-h LXRα[…] or LXRβ (pCMX-hLXRβ), reporter plasmid (LXREx1-Tk-Luciferase), and control (pCMX-Galactosidase expression vector) (Willey et al. Genes & Development 9 1033-1045 (1995)).
CV-1 cells were prepared 24 hours prior to the experiment by plating them into T-175 flasks or 500 cm^2 dishes in order to achieve 70-80% confluency on the day of the transfection. The number of cells to be transfected was determined by the number of plates to be screened. Each well of a 384 well plate requires 1.5×10^4 cells. DNA Transfection Reagent was prepared by mixing the required plasmid DNAs with a cationic lipid transfection reagent Transit 2020 (Mirus Bio) for CV1 by following the instructions provided with the reagents. Optimal DNA amounts were determined empirically per cell line and size of vessel to be transfected. For each T175 cm^2 flask a total of 59 ug for CV1 of DNA, 133 uL Transit2020 and 4.5 mL DMEM for CV1 was mixed and added. Cells were then incubated at least 5 hours at 37° C. to prepare screening cells.
Luciferase assay reagent (*Steady-Glo Luciferase Assay System by Promega, CAT#E2550) was prepared by combining before use:
Assay plates were prepared by dispensing 5 μL of compound per well of a 384 well plate to achieve final compound concentration of 10 μM and no more than 0.5% DMSO. Media was removed from the screening cells, the cells trypsinized, harvested cells by centrifugation, counted, and plated at a density of approximately 1.5×10^4 cells in the 384 well assay plate prepared above in a volume of about 95 uL. Assay plates containing both compounds and screening cells (100 μL in total volume) were incubated for 20 hours at 37° C.
After incubation with compounds, media was removed from the cells and luciferase assay reagent (50 μL/well) added. After ˜2 minutes at ambient temperature, the assay plates were read on a luminometer (PE Biosystems Northstar reader with on-board injectors, or Envision(Perkin Elmer) or equivalent).
The LXR/LXRE co-transfection assay can be used to establish the EC50/IC50 values for potency and percent activity or inhibition for efficacy. Efficacy defines the activity of a compound relative to a high control 1-(2,4-difluorobenzyl)-2-oxo-6-(4-phenoxyphenyl)-4-(trifluoromethyl)-1,2-dihydropyridine-3-carbonitrileor a low control (DMSO/vehicle). The dose response curves are generated from a 11 point curve with concentrations differing by ½ LOG units. Each point represents the average of 2 wells of data from duplicate 384 well plate.
The data from this assay is fitted to the following equation, from which the EC50 value may be solved: Y=Bottom+(Top−Bottom)/(1+10^((logEC50-X)*HillSlope)).
The EC50/IC50 is therefore defined as the concentration at which an agonist or antagonist elicits a response that is halfway between the Top (maximum) and Bottom (baseline) values. The EC50/IC50 values represented are the averages of at least 2 and normally 3 independent experiments. […]

Compound | EC50 | Emax
Cc1ccc(C(C)c2cnnn2-c2cc(-c3cc(F)c(CO)c(S(C)(=O)=O)c3)ccc2-n2cc(C(F)(F)F)nc2C)cc1 (stereo not drawn) [Example 9, (3-fluoro-3′-{5-[1-(4-methylphenyl)ethyl]-1H-1,2,3-triazol-1-yl}-5-(methylsulfonyl)-4′-[2-methyl-4-(trifluoromethyl)-1H-imidazol-1-yl]biphenyl-4-yl)methanol] | 66 nM | 75%
Cc1nc(C(F)(F)F)cn1-c1ccc(-c2cccc(S(C)(=O)=O)c2)cc1-n1nncc1C(O)(c1ccc(Cl)cc1)C(F)(F)F (stereo not drawn) [Example 11, 1-(4-chlorophenyl)-2,2,2-trifluoro-1-(1-{3′-(methylsulfonyl)-4-[2-methyl-4-(trifluoromethyl)-1H-imidazol-1-yl]biphenyl-3-yl}-1H-1,2,3-triazol-5-yl) ethanol] | 332 nM | 79%
CS(=O)(=O)c1cccc(-c2ccc(-n3cnc(C(F)(F)F)c3)c(-n3nncc3-c3ccc(Cl)cc3)c2)c1 [Example 13, 5-(4-chlorophenyl)-1-{3′-(methylsulfonyl)-4-[4-(trifluoromethyl)-1H-imidazol-1-yl]biphenyl-3-yl}-1H-1,2,3-triazole] | 957 nM | 74%
Cc1nc(C(F)(F)F)cn1-c1ccc(-c2cc(Cl)c(CO)c(S(C)(=O)=O)c2)cc1-n1nncc1-c1ccc(Cl)cc1Cl [Example 18, {3-chloro-3′-[5-(2,4-dichlorophenyl)-1H-1,2,3-triazol-1-yl]-5-(methylsulfonyl)-4′-[2-methyl-4-(trifluoromethyl)-1H-imidazol-1-yl]biphenyl-4-yl}methanol] | 283 nM | 62%
Cc1cc(-c2cnnn2-c2cc(-c3cccc(S(C)(=O)=O)c3)ccc2-n2cc(C(F)(F)F)nc2C)ccc1OC(F)(F)F [Example 20, 1-{3′-(methylsulfonyl)-4-[2-methyl-4-(trifluoromethyl)-1H-imidazol-1-yl]biphenyl-3-yl}-5-{3-methyl-4-[(trifluoromethyl)oxy]phenyl}-1H-1,2,3-triazole] | 130 nM | 93%
Cc1nc(C(F)(F)F)cn1-c1ccc(-c2cc(Cl)c(CO)c(S(C)(=O)=O)c2)cc1-n1nncc1-c1ccc2c(c1)OC(F)(F)O2 [Example 21, {3-chloro-3′-[5-(2,2-difluoro-1,3-benzodioxol-5-yl)-1H-1,2,3-triazol-1-yl]-5-(methylsulfonyl)-4′-[2-methyl-4-(trifluoromethyl)-1H-imidazol-1-yl]biphenyl-4-yl}methanol] | 502 nM | 65%
Cc1nc(C(F)(F)F)cn1-c1ccc(-c2cccc(S(C)(=O)=O)c2)cc1-n1nncc1-c1ccc(OC(F)(F)C(F)F)cc1 [Example 23, 1-{3′-(methylsulfonyl)-4-[2-methyl-4-(trifluoromethyl)-1H-imidazol-1-yl]biphenyl-3-yl}-5-{4-[(1,1,2,2-tetrafluoroethyl)oxy]phenyl}-1H-1,2,3-triazole] | 507 nM | 101%
COc1ccc(-c2cnnn2-c2cc(-c3cccc(S(C)(=O)=O)c3)ccc2-n2cc(C(F)(F)F)nc2C)c(C)c1 [Example 24, 5-[2-methyl-4-(methyloxy)phenyl]-1-{3′-(methylsulfonyl)-4-[2-methyl-4-(trifluoromethyl)-1H-imidazol-1-yl]biphenyl-3-yl}-1H-1,2,3-triazole] | 512 nM | 90%

More lines, now with the values ahead:

EC50 | Emax | Compound
848 nM | 93% | Cc1nc(C(F)F)cn1-c1ccc(-c2cccc(S(C)(=O)=O)c2)cc1-n1nncc1-c1ccc(OC(F)(F)F)cc1 [Example 6]
408 nM | 55% | CS(=O)(=O)c1cccc(-c2cc(Cl)c(-n3cnc(C(F)(F)F)c3)c(-n3nncc3-c3ccc(Cl)cc3)c2)c1 [Example 7, 1-(5-chloro-3′-(methylsulfonyl)-4-(4-(trifluoromethyl)-1H-imidazol-1-yl)biphenyl-3-yl)-5-(4-chlorophenyl)-1H-1,2,3-triazole]
143 nM | 91% | Cc1nc(C(F)(F)F)cn1-c1c(F)cc(-c2cccc(S(C)(=O)=O)c2)cc1-n1nncc1-c1ccc(Cl)cc1Cl [Example 8, 5-(2,4-dichlorophenyl)-1-{5-fluoro-3′-(methylsulfonyl)-4-[2-methyl-4-(trifluoromethyl)-1H-imidazol-1-yl]biphenyl-3-yl}-1H-1,2,3-triazole]
541 nM | 62% | Cc1nc(C(F)(F)F)cn1-c1ccc(-c2cccc(S(C)(=O)=O)c2)cc1-n1nncc1C(=O)c1ccc(Cl)cc1 [Example 10, (4-chlorophenyl)(1-{3′-(methylsulfonyl)-4-[2-methyl-4-(trifluoromethyl)-1H-imidazol-1-yl]biphenyl-3-yl}-1H-1,2,3-triazol-5-yl)methanone]
133 nM | 62% | Cc1nc(C(F)(F)F)cn1-c1ccc(-c2cccc(S(C)(=O)=O)c2)cc1-n1nncc1C(F)(F)c1ccc(Cl)cc1 [Example 12, 5-[(4-chlorophenyl) (difluoro)methyl]-1-{3′-(methylsulfonyl)-4-[2-methyl-4-(trifluoromethyl)-1H-imidazol-1-yl]biphenyl-3-yl}-1H-1,2,3-triazole]
1070 nM | 80% | CS(=O)(=O)c1cccc(-c2ccc(-n3cnc(C(F)(F)F)c3)c(-n3nncc3-c3ccc(Cl)cc3Cl)c2)c1 [Example 19, 5-(2,4-dichlorophenyl)-1-{3′-(methylsulfonyl)-4-[4-(trifluoromethyl)-1H-imidazol-1-yl]biphenyl-3-yl}-1H-1,2,3-triazole]
113 nM | 99% | Cc1nc(C(F)(F)F)cn1-c1ccc(-c2cccc(S(C)(=O)=O)c2)cc1-n1nncc1-c1ccc(N(C)C)cc1 [Example 22, N,N-dimethyl-4-(1-{3′-(methylsulfonyl)-4-[2-methyl-4-(trifluoromethyl)-1H-imidazol-1-yl]biphenyl-3-yl}-1H-1,2,3-triazol-5-yl)aniline]
